Assay results published in patent US10022453B2 (BAYER PHARMA AKTIENGESELLSCHAFT, priority 2013, dated 2018).
pIC50: −log10 of the molar value.

How the values were obtained:
[1] = biological target: T1, human kinesin spindle protein KSP/Eg5 (Homo sapiens, UniProt P52732); assay: Inhibition of the kinesin spindle protein KSP/Eg5 (ATPase, malachite green); format: biochemical; conditions: 10 nM KSP motor domain, 500 μM ATP, 2 h RT
T1 construct: The motor domain of the human kinesin spindle protein KSP/Eg5; purchased tebu-bio/Cytoskeleton Inc 027EG01-XL
T1 sequence (P52732 18-359 limits assumed): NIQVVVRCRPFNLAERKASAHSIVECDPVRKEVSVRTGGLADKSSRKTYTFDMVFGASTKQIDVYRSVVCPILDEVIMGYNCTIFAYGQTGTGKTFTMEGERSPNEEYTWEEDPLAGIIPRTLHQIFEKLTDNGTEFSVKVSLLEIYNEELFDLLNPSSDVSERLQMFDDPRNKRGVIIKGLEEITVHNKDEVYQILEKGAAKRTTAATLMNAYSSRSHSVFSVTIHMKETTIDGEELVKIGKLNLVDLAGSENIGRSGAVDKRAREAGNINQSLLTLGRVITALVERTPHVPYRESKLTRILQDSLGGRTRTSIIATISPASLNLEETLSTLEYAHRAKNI
Description: C-1b Determination of the Inhibition of the Kinesin Spindle Protein KSP/Eg5 by Selected Examples
The motor domain of the human kinesin spindle protein KSP/Eg5 (from tebu-bio/Cytoskeleton Inc, No. 027EG01-XL) is incubated at a concentration of 10 nM with 50 μg/ml taxol- (from Sigma No. T7191-5MG) stabilized microtubuli (bovine or porcine, from tebu-bio/Cytoskeleton Inc) for 5 min at RT in 15 mM PIPES, pH 6.8 (5 mM MgCl2 and 10 mM DTT, from Sigma). The freshly prepared mixture is aliquoted into a 384-well MTP. The inhibitors to be examined at concentrations of 1.0×10^−6 M to 1.0×10^−13 and ATP (final concentration 500 μM, from Sigma) are then added. Incubation is at RT for 2 h. ATPase activity is detected by detecting the inorganic phosphate formed using malachite green (from Biomol). […] The individual data of the dose-activity curve are eight-fold determinations. The IC50 values are means of three independent experiments.

[2] = Cell permeability, flux assay using Caco-2 cells; conditions: human, Caco-2
Description: C-3 In Vitro Tests for Determining Cell Permeability
The cell permeability of a substance can be investigated by means of in vitro testing in a flux assay using Caco-2 cells [M. D. Troutman and D. R. Thakker, Pharm. […] For this purpose, the cells were cultured for 15-16 days on 24-well filter plates. For the determination of permeation, the respective working example was applied in a HEPES buffer to the cells either apically (A) or basally (B) and incubated for 2 hours. After 0 hours and after 2 hours, samples were taken from the cis and trans compartments. The samples were separated by HPLC (Agilent 1200, Böblingen, Germany) using reverse phase columns.
Of critical importance for toxophores which are released intracellularly is the permeability from B to A [Papp(B-A)] and the ratio of Papp(B-A) to Papp(A-B) (efflux ratio): the lower this permeability, the slower the active and passive transport processes of the substance through the monolayer of Caco-2 cells.

Structure (SMILES)	pIC50 [1]	Papp B→A at 2 h [2]	efflux ratio at 2 h [2]
CC(C)(C)[C@H](c1nc(-c2cc(F)ccc2F)cn1Cc1ccccc1)N(CC(CN)CS)C(=O)CO (single isomer, unassigned; isomer 1) [Example 93]	8.60	–	–
CC(C)(C)[C@H](c1nc(-c2cc(F)ccc2F)cn1Cc1ccccc1)N(CC(CN)CS)C(=O)CO (single isomer, unassigned; isomer 2) [Example 94]	8.29	–	–
CC(C)(C)[C@H](c1nc(-c2cc(F)ccc2F)cn1Cc1ccccc1)N(CC[C@H](N)C(=O)NCCCC[C@H](N)C(=O)O)C(=O)CO.O=C(O)C(F)(F)F [Example 59, N^6-{(2S)-2-Amino-4-[{(1R)-1-[1-benzyl-4-(2,5-difluorophenyl)-1H-imidazol-2-yl]-2,2-dimethylpropyl}(glycoloyl)amino]butanoyl}-L-lysine trifluoroacetic acid (1:1)]	8.37	2.2 ×10⁻⁶ cm/s	4.8
CC(C)(C)[C@H](c1nc(-c2cc(F)ccc2F)cn1Cc1ccccc1)N(CC[C@H](N)C(=O)NCCN1C(=O)CC(SC[C@H](N)C(=O)O)C1=O)C(=O)CO (stereo partly drawn) [Example 61, S-{1-[2-({(2S)-2-Amino-4-[{(1R)-1-[1-benzyl-4-(2,5-difluorophenyl)-1H-imidazol-2-yl]-2,2-dimethylpropyl}(glycoloyl)amino]butanoyl}amino)ethyl]-2,5-dioxopyrrolidin-3-yl}-L-cysteine]	–	4.4 ×10⁻⁶ cm/s	7.4
CC(C)(C)[C@H](c1nc(-c2cc(F)ccc2F)cn1Cc1ccccc1)N(CC[C@H](N)C(=O)NCCOCCN1C(=O)CC(SC[C@H](N)C(=O)O)C1=O)C(=O)CO (some centres unmarked) [Example 62]	–	5 ×10⁻⁶ cm/s	6
CC(C)[C@H](NC(=O)CCCCCN1C(=O)CC(SC[C@H](N)C(=O)O)C1=O)C(=O)N[C@@H](C)C(=O)N[C@@H](CCCCNC(=O)[C@@H](N)CCN(C(=O)CO)[C@@H](c1nc(-c2cc(F)ccc2F)cn1Cc1ccccc1)C(C)(C)C)C(=O)O.O=C(O)C(F)(F)F (stereo partly drawn) [Example 63, N-[6-(3-{[(2R)-2-Amino-2-carboxyethyl]sulfanyl}-2,5-dioxopyrrolidin-1-yl)hexanoyl]-L-valyl-L-alanyl-N^6-{(2S)-2-amino-4-[{(1R)-1-[1-benzyl-4-(2,5-difluorophenyl)-1H-imidazol-2-yl]-2,2-dimethylpropyl}(glycoloyl)amino]butanoyl}-L-lysine trifluoroacetic acid (1:1)]	8.54	0.098 ×10⁻⁶ cm/s	1.1
CC(C)(C)[C@H](c1nc(-c2cc(F)ccc2F)cn1Cc1ccccc1)N(CC[C@H](N)C(=O)NCCNC(=O)CN1C(=O)CC(SC[C@H](N)C(=O)O)C1=O)C(=O)CO.O=C(O)C(F)(F)F (stereo partly drawn) [Example 64, S-[1-(2-{[2-({(2S)-2-Amino-4-[{(1R)-1-[1-benzyl-4-(2,5-difluorophenyl)-1H-imidazol-2-yl]-2,2-dimethylpropyl}(glycoloyl)amino]butanoyl}amino)ethyl]amino}-2-oxoethyl)-2,5-dioxopyrrolidin-3-yl]-L-cysteine trifluoroacetic acid (1:1)]	8.51	1 ×10⁻⁶ cm/s	2.8
C[C@H](NC(=O)CCNC(=O)[C@@H](N)CCN(C(=O)CO)[C@@H](c1nc(-c2cc(F)ccc2F)cn1Cc1ccccc1)C(C)(C)C)C(=O)N[C@@H](CCCNC(N)=O)C(=O)Nc1ccc(NC(=O)CN2C(=O)CC(SC[C@H](N)C(=O)O)C2=O)cc1 (stereo partly drawn) [Example 65, N-{(2S)-2-Amino-4-[{(1R)-1-[1-benzyl-4-(2,5-difluorophenyl)-1H-imidazol-2-yl]-2,2-dimethylpropyl}(glycoloyl)amino]butanoyl}-beta-alanyl-L-alanyl-N-(4-{[(3-{[(2R)-2-amino-2-carboxyethyl]sulphanyl}-2,5-dioxopyrrolidin-1-yl)acetyl]amino}phenyl)-N^5-carbamoyl-L-ornithinamide]	8.69	0.12 ×10⁻⁶ cm/s	2.3
CC(C)(C)[C@H](c1nc(-c2cc(F)ccc2F)cn1Cc1ccccc1)N(CC[C@H](N)C(=O)NN)C(=O)CO.O=C(O)C(F)(F)F [Example 77, Trifluoroacetic acid/N-[(3S)-3-amino-4-hydrazino-4-oxobutyl]-N-{(1R)-1-[1-benzyl-4-(2,5-difluorophenyl)-1H-imidazol-2-yl]-2,2-dimethylpropyl}-2-hydroxyacetamide (1:1)]	–	48 ×10⁻⁶ cm/s	47
CC(C)(C)[C@H](c1nc(-c2cc(F)ccc2F)cn1Cc1ccccc1)N(CC[C@H](N)C(=O)NCCC(=O)O)C(=O)CO [Example 79, N-{(2S)-2-Amino-4-[{(1R)-1-[1-benzyl-4-(2,5-difluorophenyl)-1H-imidazol-2-yl]-2,2-dimethylpropyl}(glycoloyl)amino]butanoyl}-beta-alanine]	–	5.8 ×10⁻⁶ cm/s	–
CC(C)(C)[C@H](c1nc(-c2cc(F)ccc2F)cn1Cc1ccccc1)N(CC[C@H](N)C(=O)N(N)CC(=O)O)C(=O)CO [Example 81, (1-{(2S)-2-Amino-4-[{(1R)-1-[1-benzyl-4-(2,5-difluorphenyl)-1H-imidazol-2-yl]-2,2-dimethylpropyl}(glycoloyl)amino]butanoyl}hydrazino)acetic acid/trifluoroacetic acid (1:2)]	8.85	–	–
CC(C)(C)[C@H](c1nc(-c2cc(F)ccc2F)cn1Cc1ccccc1)N(CCCN)C(=O)c1ccc(N)cc1 [Example 95, Trifluoroacetic acid/4-amino-N-(3-aminopropyl)-N-{(1R)-1-[1-benzyl-4-(2,5-difluorophenyl)-1H-imidazol-2-yl]-2,2-dimethylpropyl}benzamide (2:1)]	8.52	–	–
CC(C)(C)[C@H](c1nc(-c2cc(F)ccc2F)cn1Cc1ccccc1)N(CCCNC(=O)[C@@H](N)CCCNC(N)=O)C(=O)CO [Example 100, Trifluoroacetic acid/N-{3-[{(1R)-1-[1-benzyl-4-(2,5-difluorophenyl)-1H-imidazol-2-yl]-2,2-dimethylpropyl}(glycoloyl)amino]propyl}-N5-carbamoyl-L-ornithinamide (1:1)]	8.22	–	–
CC(C)[C@H](N)C(=O)N[C@@H](CCCNC(N)=O)C(=O)NCCCN(C(=O)CO)[C@@H](c1nc(-c2cc(F)ccc2F)cn1Cc1ccccc1)C(C)(C)C [Example 101, Trifluoroacetic acid/L-valyl-N-{3-[{(1R)-1-[1-benzyl-4-(2,5-difluorophenyl)-1H-imidazol-2-yl]-2,2-dimethylpropyl}(glycoloyl)amino]propyl}-N5-carbamoyl-L-ornithinamide (1:1)]	8.37	–	–
CC(C)(C)[C@H](c1cc(-c2cc(F)ccc2F)cn1Cc1ccccc1)N(CC[C@H](N)C(=O)N[C@@H](CO)C(=O)O)C(=O)CO [Example 201, N-{(2S)-2-Amino-4-[{(1R)-1-[1-benzyl-4-(2,5-difluorophenyl)-1H-pyrrol-2-yl]-2,2-dimethylpropyl}(glycoloyl)amino]butanoyl}-L-serine/trifluoroacetic acid (1:1)]	9.75	–	–
CC(C)(C)[C@H](c1cc(-c2cc(F)ccc2F)cn1Cc1ccccc1)N(CC[C@H](N)C(=O)NCC(=O)O)C(=O)CO [Example 203, N-{(2S)-2-Amino-4-[{(1R)-1-[1-benzyl-4-(2,5-difluorophenyl)-1H-pyrrol-2-yl]-2,2-dimethylpropyl}(glycoloyl)amino]butanoyl}glycine/trifluoroacetic acid (1:1)]	9.64	–	–
CC(C)(C)[C@H](c1cc(-c2cc(F)ccc2F)cn1Cc1ccccc1)N(CC[C@H](N)C(=O)NCCOCCN1C(=O)CC(SC[C@H](N)C(=O)O)C1=O)C(=O)CO.O=C(O)C(F)(F)F (stereo partly drawn) [Example 251, S-(1-{2-[2-({(2S)-2-Amino-4-[{(1R)-1-[1-benzyl-4-(2,5-difluorophenyl)-1H-pyrrol-2-yl]-2,2-dimethylpropyl}(glycoloyl)amino]butanoyl}amino)ethoxy]ethyl}-2,5-dioxopyrrolidin-3-yl)-L-cysteine/trifluoroacetic acid (1:1)]	–	2.1 ×10⁻⁶ cm/s	–
CC(C)(C)[C@H](c1cc(-c2cc(F)ccc2F)cn1Cc1ccccc1)N(CC[C@H](N)C(=O)NCCNC(=O)CNC(=O)CC1SC[C@@H](C(=O)O)NC1=O)C(=O)CO (stereo partly drawn) [Example 256, (3R)-6-{(11S,15R)-11-Amino-15-[1-benzyl-4-(2,5-difluorophenyl)-1H-pyrrol-2-yl]-14-glycoloyl-16,16-dimethyl-2,5,10-trioxo-3,6,9,14-tetraazaheptadec-1-yl}-5-oxothiomorpholine-3-carboxylic acid/trifluoroacetic acid (1:1)]	7.79	–	–
